The source of these data is patent publication US20250221979A1, “NOVEL HETEROCYCLIC COMPOUND” (SHOUYAO HOLDINGS (BEIJING) CO., LTD., priority 2022, published 2025).

Chain of human MAT2A enzyme (P31153 whole entry): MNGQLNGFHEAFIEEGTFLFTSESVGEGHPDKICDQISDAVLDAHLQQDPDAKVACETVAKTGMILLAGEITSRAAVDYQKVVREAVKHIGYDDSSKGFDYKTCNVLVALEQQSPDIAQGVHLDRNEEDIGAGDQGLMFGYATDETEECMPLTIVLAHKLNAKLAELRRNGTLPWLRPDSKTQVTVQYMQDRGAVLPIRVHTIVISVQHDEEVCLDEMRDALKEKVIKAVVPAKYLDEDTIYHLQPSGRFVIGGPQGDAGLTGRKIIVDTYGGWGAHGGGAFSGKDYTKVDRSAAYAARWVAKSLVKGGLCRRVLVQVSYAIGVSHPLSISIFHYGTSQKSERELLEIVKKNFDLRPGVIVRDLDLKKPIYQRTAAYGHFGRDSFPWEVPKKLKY

Tested on in the first data set: not listed separately
Kind of data set: In vivo pharmacokinetic study in CD-1 mice. The settings on record: male, mouse, single oral gavage dose of 10 mg/kg, plasma. As to the method: In vivo pharmacokinetic study in CD-1 mice
Twenty-four healthy adult male mice from Beijing Vital River Laboratory Animal Technology Co., Ltd. were used in the study.
CD-1 mice were administered with a single oral gavage dose of 10 mg/kg in a volume of 10 mL/kg at a concentration of 1 mg/mL.
The test article in this project is generally suspended in 0.5% hydroxypropylmethyl cellulose, 0.1% Tween 80 (W/V/V) aqueous solution at the concentration of 1 mg/mL.
Animals dosed by gavage were fasted overnight before the experiment from 16 h before dosing to 4 h after dosing. Blood was collected at 0.25, 0.5, 1, 2, 4, 6, 8, and 24 h after administration successively. The animals were lightly anesthetized with isoflurane. About 0.2 mL of whole blood was collected from the orbital venous plexus using a glass blood collection tube and placed in a sodium heparin anticoagulant tube. The sample was centrifuged at 5200 rpm for 5 min at 4° C. The plasma was transferred to a centrifuge tube and stored at −80° C. until analysis.
Analysis of plasma samples Test compounds and internal standards (warfarin or propranolol) were extracted from mouse plasma using an acetonitrile protein precipitation method and the extracts were analyzed by LC/MS/MS. The measured plasma concentration-time data of individual animals were analyzed using the non-compartmental model of WinNonlin (version 5.2.1, Pharsight) software to obtain the corresponding pharmacokinetic parameters: maximum (peak) plasma drug concentration Cmax; Time to peak Tmax; Half-life T1/2 and area under the plasma concentration-time curve extrapolated to infinite time AUC0-inf.
The term AUC denotes concentration integrated over time. High values mean more exposure, low ones less exposure. A word on the Cmax: it is the highest concentration seen after dosing. As usually defined, the Tmax is the time from dosing to the highest level. In general, half-life refers to the time needed for the level to fall by half in the phase considered. High values mean slow decline, low ones rapid decline. Turning to `COC(=O)c1c(N)c2ccc(Cl)cc2n(-c2ccccc2)c1=O` [Example 15, methyl 4-amino-7-chloro-2-oxo-1-phenyl-1,2-dihydroquinoline-3—carboxylate], the AUC is 44200 ng·h/mL, the highest level (Cmax) was 3080 ng/mL, the Tmax amounted to 6 h and the half-life is 8.88 h.
The corresponding values for `COC(=O)c1c(N)c2ccc(Br)cc2n(-c2ccccc2)c1=O` [Example 22, methyl 4-amino-7-bromo-2-oxo-1-phenyl-1,2-dihydroquinoline-3—carboxylate] are 25300 ng·h/mL, 1920 ng/mL, 6 h and 6.82 h.
Turning to `COC(=O)c1c(N)c2ccc(C(F)(F)F)cc2n(-c2ccccc2C)c1=O` [Example 23, methyl 4-amino-7-trifluoromethyl-1-(2-methylphenyl)-2-oxo-1,2-dihydro quinoline-3-carboxylate], the AUC turned out to be 37000 ng·h/mL, the concentration peaked (Cmax) at 2640 ng/mL, the Tmax was 6 h and the half-life is 6.51 h.
Turning to `COC(=O)c1c(N)c2ccc(C(F)(F)F)cc2n(-c2cccc3cnccc23)c1=O` [Example 88, methyl 4-amino-1-(isoquinolin-5-yl)-2-oxo-7-(trifluoromethyl)-1,2-dihydroquinoline-3-carboxylate], the AUC was found to be 24800 ng·h/mL, the Cmax was determined as 6690 ng/mL, the Tmax amounted to 0.42 h and the half-life was 3.88 h.

The next data set addresses human MAT2A enzyme (Homo sapiens (Human), UniProt P31153). Briefly: In vitro enzymatic inhibition activity assay on MAT2A (PiColorLock phosphate detection). The format is biochemical. The following applies: purified human MAT2A 10 nM, ATP 50 μM, L-methionine 100 μM, 6 h at 23° C.; read-out: MAT2A inhibitory activity IC50. The essentials:
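Purified human MAT2A (10 nM) turned L-methionine (100 μM) and ATP (50 μM) into SAM in Tris-HCl pH 7.5 buffer with MgCl2, KCl and DTT for 6 h at 23 °C. Released phosphate was read colorimetrically at 630 nm. IC50 was fitted from an 8-point, 10-fold dilution series.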
A word on the IC50: it is the concentration at which inhibition is half-maximal. In the case of `COC(=O)c1c(N)c2ccc(Br)cc2n(-c2ccccc2)c1=O` [Example 22, methyl 4-amino-7-bromo-2-oxo-1-phenyl-1,2-dihydroquinoline-3—carboxylate], the IC50 was 0.54 nM.
The same measure, in the same setting: next, `COC(=O)c1c(N)c2ccc(C(F)(F)F)cc2n(-c2ccccc2C)c1=O` [Example 23, methyl 4-amino-7-trifluoromethyl-1-(2-methylphenyl)-2-oxo-1,2-dihydro quinoline-3-carboxylate]: 0.91 nM; `COC(=O)c1c(N)c2ccc(C(F)(F)F)cc2n(-c2cccc3cnccc23)c1=O` [Example 88, methyl 4-amino-1-(isoquinolin-5-yl)-2-oxo-7-(trifluoromethyl)-1,2-dihydroquinoline-3-carboxylate]: 7.3 nM.
Same read-out and setting: next, `[2H]C([2H])([2H])OC(=O)c1c(N)c2ccc(Br)cc2n(-c2ccc([C@@H](C)O)cc2)c1=O` [Example 351, methyl-d3 (R)-4-amino-7-bromo-1-(4-(1-hydroxyethyl)phenyl)-2-oxo-1,2-dihydroquinolin-3-carboxylate]: 1.05 nM; `COC(=O)c1c(N)c2ccc(Br)cc2n(-c2ccc(C(C)O)nc2)c1=O` (stereo not shown) [Example 352, methyl 4-amino-7-bromo-1-(6-(1-hydroxyethyl)pyridin-3-yl)-2-oxo-1,2-dihydroquinoline-3-carboxylate]: 2.58 nM; `COC(=O)c1c(N)c2ccc(C3CC3)cc2n(-c2ccc([C@@H](C)O)cc2)c1=O` [Example 353, methyl 4-amino-(1-(4-(1R)-1-hydroxyethyl)phenyl)-7-cyclopropyl-2-oxo-1,2-dihydroquinoline-3-carboxylate]: 1.25 nM.
As for `COC(=O)c1c(N)c2ccc(OC(F)F)cc2n(-c2ccc([C@@H](C)O)cc2)c1=O` [Example 354, methyl (R)-4-amino-7-(difluoromethoxy)-1-(4-(1-hydroxyethyl)phenyl)-2-oxo-1,2-dihydroquinoline-3-carboxylate], the IC50 amounted to 0.46 nM.
For `COC(=O)c1c(N)c2ccc(C(F)F)cc2n(-c2ccc([C@@H](C)O)cc2)c1=O` [Example 357, methyl (R)-4-amino-7-(difluoromethyl)-1-(4-(1-hydroxyethyl)phenyl)-2-oxo-1,2-dihydroquinoline-3-carboxylate], the IC50 was determined as 0.54 nM.
Still for that read-out and setting: under `COC(=O)c1c(N)c2ccc(C(C)(F)F)cc2n(-c2ccc([C@@H](C)O)cc2)c1=O` [Example 358, methyl 4-amino-7-(1,1-difluoroethyl)-1-(4-((1R)-1-hydroxyethyl)phenyl)-2-oxo-1,2-dihydroquinoline-3-carboxylate] stands 1.36 nM.
`COC(=O)c1c(N)c2ccc(C3CC3)nc2n(-c2ccc(C(C)O)cc2)c1=O` (stereo not shown) [Example 360, methyl 4-amino-7-cyclopropyl-1-(4-(1-hydroxyethyl)phenyl)-2-oxo-1,2-dihydro-1,8-naphthyridine-3-carboxylate]: the IC50 was determined as 1.27 nM.
In the case of `COC(=O)c1c(N)c2ccc(OC)cc2n(-c2ccc([C@@H](C)O)cc2)c1=O` [Example 365, methyl (R)-4-amino-1-(4-(1-hydroxyethyl)phenyl)-7-methoxy-2-oxo-1,2-dihydroquinoline-3-carboxylate], the IC50 is 2.02 nM.
Same read-out and setting: under `COC(=O)c1c(N)c2ccc(C(F)F)nc2n(-c2ccc(C(C)O)cc2)c1=O` (stereo not shown) [Example 366, methyl 4-amino-7-(difluoromethyl)-1-(4-(1-hydroxyethyl)phenyl)-2-oxo-1,2-dihydro-1,8-naphthyridine-3-carboxylate] stands 1 nM.
For the molecule `[2H]CC(O)c1ccc(-n2c(=O)c(C(=O)OC([2H])([2H])[2H])c(N)c3ccc(C(F)(F)F)nc32)cc1` (stereo not shown) [Example 371, methyl-d3 4-amino-1-(4-(1-hydroxyethyl-2-d)phenyl)-2-oxo-7-(trifluoromethyl)-1,2-dihydro-1,8-naphthyridine-3-carboxylate], the IC50 was 1.45 nM.
For `COC(=O)c1c(N)c2ccc(C3CC3)nc2n(-c2ccc(N)cc2)c1=O` [Example 373, methyl 4-amino-1-(4-aminophenyl)-7-cyclopropyl-2-oxo-1,2-dihydro-1,8-naphthyridine-3-carboxylate], the IC50 is 1.05 nM.
As to `COC(=O)c1c(N)c2ccc(C3CC3)nc2n(-c2ccc(C)nc2)c1=O` [Example 377, methyl 4-amino-7-cyclopropyl-1-(6-methylpyridin-3-yl)-2-oxopyrido[2,3-b]pyridin-3-carboxylate], the IC50 came to 1.89 nM.
The same measure, in the same setting: under `COC(=O)c1c(N)c2ccc(NCC(F)(F)F)nc2n(-c2ccc(C)nc2)c1=O` [Example 382, methyl 4-amino-1-(6-methylpyridin-3-yl)-2-oxo-7-((2,2,2-trifluoroethyl)amino)-1,2-dihydro-1,8-naphthyridine-3-carboxylate] stands 1.88 nM.
Still for that read-out and setting: under `COC(=O)c1c(N)c2ccc(OC(C)C)nc2n(-c2ccc(Cl)cc2)c1=O` [Example 388, methyl 4-amino-1-(4-chlorophenyl)-7-isopropoxy-2-oxo-1,2-dihydro-1,8-naphthyridine-3-carboxylate] stands 1.55 nM; under `[2H]C([2H])([2H])OC(=O)c1c(N)c2ccc(OC(F)(F)F)cc2n(-c2ccc(N)cc2)c1=O` [Example 391, methyl-d3 4-amino-1-(4-aminophenyl)-2-oxo-7-(trifluoromethoxy)-1,2-dihydroquinoline-3-carboxylate], 1.31 nM; under `[2H]C([2H])([2H])OC(=O)c1c(N)c2ccc(OC(F)(F)F)cc2n(-c2ccc([C@@H](C)O)cc2)c1=O` [Example 393, methyl-d3 4-amino-1-(4-((1R)-1-hydroxyethyl)phenyl)-2-oxo-7-(trifluoromethoxy)-1,2-dihydroquinoline-3-carboxylate], 1.52 nM.
On the same count and under the same terms, under `[2H]C([2H])([2H])OC(=O)c1c(N)c2ccc(C(F)(F)F)cc2n(-c2ccc(N)cc2)c1=O` [Example 412, methyl-d3 4-amino-1-(4-aminophenyl)-7-(trifluoromethyl)-2-oxo-1,2-dihydroquinoline-3-carboxylate] stands 0.97 nM; under `[2H]C([2H])([2H])OC(=O)c1c(N)c2ccc(OC(F)F)cc2n(-c2ccc(N)cc2C)c1=O` [Example 429, methyl-d3 4-amino-1-(2-methyl-4-aminophenyl)-7-(difluoromethoxy)-2-oxo-1,2-dihydroquinolin-3-carboxylate], 1.15 nM.
